Test results: patent publication US20050002859A1, “COX-2-targeted imaging agents” (Vanderbilt University, priority 2003, published 2005)
pIC50: −log10 of the molar value.

Tests used:
[1] = rat, in vivo
[2] = test system: rat carageenan footpad edema; experiment: Rat carageenan footpad edema model; type: in vivo
Method: The first is the rat carageenan footpad model. Maximal edema is obtained in this model 3 hours after carageenan injection.

COX-1 = biological target: T1, COX-1 (Ovis aries, UniProt P05979); experiment: Inhibition of COX-1 by NSAID derivatives (species not stated); type: biochemical
T1 sequence (P05979 25-600): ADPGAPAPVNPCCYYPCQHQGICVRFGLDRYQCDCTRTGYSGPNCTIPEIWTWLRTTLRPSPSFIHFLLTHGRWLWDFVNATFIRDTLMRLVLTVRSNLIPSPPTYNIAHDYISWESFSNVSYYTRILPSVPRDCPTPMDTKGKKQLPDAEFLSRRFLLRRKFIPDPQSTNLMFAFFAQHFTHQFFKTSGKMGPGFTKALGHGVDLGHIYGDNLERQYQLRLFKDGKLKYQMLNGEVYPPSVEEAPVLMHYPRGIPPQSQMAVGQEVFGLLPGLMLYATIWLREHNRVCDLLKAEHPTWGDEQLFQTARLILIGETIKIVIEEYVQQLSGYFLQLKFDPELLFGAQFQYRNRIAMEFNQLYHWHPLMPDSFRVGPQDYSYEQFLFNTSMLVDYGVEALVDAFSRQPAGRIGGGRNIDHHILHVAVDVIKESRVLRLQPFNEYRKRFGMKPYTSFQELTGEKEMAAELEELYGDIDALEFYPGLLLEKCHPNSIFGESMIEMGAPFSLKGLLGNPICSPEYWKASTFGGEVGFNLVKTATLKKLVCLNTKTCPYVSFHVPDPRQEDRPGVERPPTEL
Method: (§1) While the TLC assay described above provides considerable information, it is labor-intensive for screening large numbers of candidate NSAID derivatives. Accordingly, as an alternative, a simplified assay can be used. Incubation conditions can be essentially as described above, except all candidate derivatives are first screened at a concentration of 1 mM with a preincubation time of 30 minutes. The substrate need not be radiolabeled, and the reaction can be stopped by the addition of 2 μL of formic acid. Product formation can be quantitated by enzyme-linked immunosorbent assay (ELISA) using commercially available kits. […] Other in vitro assay methods for screening NSAID derivatives for activity (e.g., selectivity for the COX-2 enzyme) can also be used by the skilled artisan.

[3] = Metabolism by rat liver microsomes; type: in vitro ADME; conditions: 0.125 mg/mL protein
Method: Preliminary metabolic studies were conducted using isolated liver microsome preparations.

[4] = biological target: T2, COX-2 activity in RAW 264.7 murine macrophage cell line (Mus musculus, UniProt Q05769); experiment: Inhibition of COX-2 activity (PGD2 synthesis) in activated RAW264.7 macrophages; type: cell-based; conditions: read-out: IC50 for inhibition of COX-2 activity in RAW 264.7 macrophages
T2 construct: The macrophages were exposed to lipopolysaccharide and γ-interferon to induce COX-2; endogenous in cells
T2 sequence (Q05769 18-604): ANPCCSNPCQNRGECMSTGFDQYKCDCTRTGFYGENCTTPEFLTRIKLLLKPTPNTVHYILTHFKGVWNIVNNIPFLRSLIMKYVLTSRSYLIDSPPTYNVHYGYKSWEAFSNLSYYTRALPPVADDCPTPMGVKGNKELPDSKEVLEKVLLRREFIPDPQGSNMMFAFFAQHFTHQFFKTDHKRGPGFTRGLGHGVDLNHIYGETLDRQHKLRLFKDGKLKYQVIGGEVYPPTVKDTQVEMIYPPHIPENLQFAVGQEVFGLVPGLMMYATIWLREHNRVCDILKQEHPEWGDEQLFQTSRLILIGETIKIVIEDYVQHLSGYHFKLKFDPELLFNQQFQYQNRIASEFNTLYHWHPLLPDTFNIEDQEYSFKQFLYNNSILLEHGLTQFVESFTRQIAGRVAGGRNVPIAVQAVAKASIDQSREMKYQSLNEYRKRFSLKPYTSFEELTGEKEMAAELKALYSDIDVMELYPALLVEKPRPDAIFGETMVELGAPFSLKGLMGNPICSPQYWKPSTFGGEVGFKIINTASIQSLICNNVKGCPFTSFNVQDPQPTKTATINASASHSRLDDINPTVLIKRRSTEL
Source text: Thus, NSAID derivatives that are identified as potentially useful in the methods described herein can be further tested using, for example, the RAW264.7 murine macrophage cell line. These cells are readily available (for example, from the American Type Culture Collection, Manassas, Va., United States of America) and are easily cultured in large numbers. They normally express low levels of COX-1 and very low to undetectable levels of COX-2. Upon exposure to bacterial lipopolysaccharide (LPS), however, COX-2 levels increase dramatically over the ensuing 24 hour period, and the cells produce PGD2 and PGE2 from endogenous arachidonic acid stores (generally, ˜1 nmol/10^7 cells total PG formation). After LPS exposure, the addition of exogenous arachidonic acid results in the formation of additional PGD2 and PGE2 as a result of metabolism by the newly synthesized COX-2.
This system provides a number of approaches for testing the inhibitory potency of COX-2-selective ligands (e.g., inhibitors). In general, following LPS activation, cells can be treated for 30 minutes with the desired concentrations of candidate derivative(s) in DMSO. ^14C-arachidonic acid can be added, and the cells can be incubated for 15 minutes at 37° C. Product formation can be assessed following extraction and TLC separation of the culture medium. Alternatively, the effects of candidate derivatives on PG synthesis from endogenous arachidonic acid can be assessed by incubating cells with desired concentrations of candidate derivatives 30 minutes prior to LPS exposure. Following a 24 hour incubation, medium can be collected and extracted, and the amount of PGD2 and/or PGE2 can be assayed by gas chromatography-mass spectrometry, liquid chromatography-mass spectrometry, or ELISA.
Inhibition of COX-2 Activity in Activated RAW264.7. Protocols for COX-2 inhibition in RAW264.7 cells have been previously described (Kalgutkar et al., 1998b). Briefly, cells (6.2×10^6 cells/T25 flask) were activated with lipopolysaccharide (1 μg/mL) and γ-interferon (10 U/mL) in serum-free DMEM for 7 hours and then treated with inhibitor (0-2 μM) for 30 minutes at 37° C. Exogenous arachidonate metabolism was determined by adding [1-^14C]-arachidonate acid (20 μM) for 15 minutes at 37° C. IC50 values are the average of two independent determinations.
The macrophages were exposed to lipopolysaccharide and γ-interferon to induce COX-2 and then treated with several concentrations of Compound 355.

COX-2 = biological target: T3, COX-2 (Homo sapiens, UniProt P35354); experiment: Inhibition of purified COX-2 by NSAID derivatives (species not stated); type: biochemical; conditions: purified enzyme
T3 sequence (P35354 18-604): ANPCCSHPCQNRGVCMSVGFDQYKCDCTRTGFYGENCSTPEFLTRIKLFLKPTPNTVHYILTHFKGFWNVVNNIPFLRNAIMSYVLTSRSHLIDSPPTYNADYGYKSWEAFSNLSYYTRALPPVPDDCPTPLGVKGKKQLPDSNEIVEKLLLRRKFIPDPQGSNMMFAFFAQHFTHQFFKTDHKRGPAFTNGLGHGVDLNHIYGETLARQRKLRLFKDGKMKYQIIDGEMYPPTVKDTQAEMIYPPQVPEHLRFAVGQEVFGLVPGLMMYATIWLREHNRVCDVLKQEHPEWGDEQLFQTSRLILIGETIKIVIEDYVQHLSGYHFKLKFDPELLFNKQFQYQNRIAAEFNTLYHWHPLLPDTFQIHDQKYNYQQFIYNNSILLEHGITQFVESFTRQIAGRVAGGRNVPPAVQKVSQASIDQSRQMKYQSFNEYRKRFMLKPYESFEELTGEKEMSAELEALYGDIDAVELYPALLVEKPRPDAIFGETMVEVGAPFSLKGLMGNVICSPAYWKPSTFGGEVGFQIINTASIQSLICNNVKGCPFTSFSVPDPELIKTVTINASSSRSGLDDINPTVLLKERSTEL
Method: as §1

[5] = biological target: T4, COX-1 activity in uninduced macrophages (Mus musculus, UniProt P22437); experiment: Inhibition of COX-1 activity in uninduced macrophages; type: cell-based, murine
T4 construct: endogenous in cells
T4 sequence (P22437 27-602): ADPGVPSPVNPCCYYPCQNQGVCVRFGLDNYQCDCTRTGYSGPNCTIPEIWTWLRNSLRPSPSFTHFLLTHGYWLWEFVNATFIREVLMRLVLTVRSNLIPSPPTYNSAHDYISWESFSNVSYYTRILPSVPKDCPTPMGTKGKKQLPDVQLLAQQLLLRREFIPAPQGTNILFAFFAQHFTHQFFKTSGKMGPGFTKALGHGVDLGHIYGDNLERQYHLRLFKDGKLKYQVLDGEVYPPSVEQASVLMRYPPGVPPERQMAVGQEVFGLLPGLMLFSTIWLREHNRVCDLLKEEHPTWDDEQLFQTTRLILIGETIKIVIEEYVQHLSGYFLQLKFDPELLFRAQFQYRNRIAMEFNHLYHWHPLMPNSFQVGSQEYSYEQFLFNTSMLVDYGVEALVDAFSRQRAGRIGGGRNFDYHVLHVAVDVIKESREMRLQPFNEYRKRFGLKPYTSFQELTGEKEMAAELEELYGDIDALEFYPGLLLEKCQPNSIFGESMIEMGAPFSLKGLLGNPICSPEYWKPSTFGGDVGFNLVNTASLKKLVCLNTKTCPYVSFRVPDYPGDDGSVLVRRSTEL

Which results are given for `COc1ccc2c(c1)c(CC(=O)Nc1ccc(F)cc1)c(C)n2C(=O)c1ccc(Cl)cc1` [Compound 18, p-fluorophenyl derivative of indomethacin amide]?
clearance half-life [1]: 4 h; half-life in plasma ([1]; po): 4 h; oral bioavailability ([1]; po): 30%; anti-inflammatory activity in rat footpad edema assay ([2]; following oral installation): anti-inflammatory activity; ED50 ([2]; rat carageenan footpad model (Example 14)): 0.25 mg/kg; pIC50 (COX-1): < 4.18; half-life, rat liver microsomes [3]: 1.67 h

With `CCCCC#CCSc1ccccc1OC(=O)CF` [F-APHS] as the compound, how does the pIC50 [4] read?
Its pIC50 is 5.55.

What about the pIC50 (COX-2) of the same compound?
Its pIC50 is 5.40.

And the “concentration up to which COX-1 activity is not inhibited” value [5]?
The value was over 32 µM.
